The values below are quoted from earlier work in patent publication US20030060423A1, “Co-therapy for the treatment of dementia and associated behavioral manifestations comprising anticonvulsant derivatives and acetylcholinesterase inhibitors” (priority 2001, published 2003).

The test system of series [1] is behavioral and psychiatric symptoms of AD. The settings on record: in vivo.
In another series the test system is seizures. The settings on record: several rodent models of epilepsy.
Another series concerns focal ischemia. The settings on record: used 2 hours after MCA embolization, rat.
For series [2], the system named is neuronal damage following global ischemia. To be noted: gerbils.
Another series has as its system attention, cognition. The settings on record: some individuals.
Another series has as its system kindled epilepsy. To be noted: animal model of kindled epilepsy.
Series [3] has as its system simple and complex partial seizures and secondarily generalized seizures. The settings on record: clinical trials, adjunctive therapy or monotherapy.

On to `COc1ccc2c3c1O[C@H]1C[C@@H](O)C=C[C@@]31CCN(C)C2` [galantamine, (4aS,6R,8aS)-4a,5,9,10,11,12-hexahydro-3-methoxy-11-methyl-6H-benzofuro[3a,3,2-ef][2]benzazepin-6-ol], for which, in the series on nicotinic receptors, the “modulation of nicotinic receptors” value is “allosteric modulation of nicotinic receptors”. For the same compound, in series [1], the “benefit on behavioral and psychiatric symptoms of AD” value is “benefits on the behavioral and psychiatric symptoms of AD”.
Consider `CC1(C)O[C@@H]2[C@@H](CO[C@@]3(COS(N)(=O)=O)OC(C)(C)O[C@@H]23)O1` [topiramate, 2,3:4,5-bis-O-(1-methylethylidene)-β-D-fructopyranose sulfamate], for which the block of seizures entry with seizures and in the series with kindled epilepsy was “effectively block seizures” each time. In the series with focal ischemia, the neuroprotective effect entry was “dose- and use-dependent neuroprotective effect”. Also, the “neuroprotective effect against neuronal damage” value in series [2] was “neuroprotective effect”. The effect on attention entry in the series on attention, cognition was “may impair attention”. The “efficacy in treating simple and complex partial seizures and secondarily generalized seizures” value in series [3] is on record as “effective as adjunctive therapy or as monotherapy”.
